From patent publication US5508273A, “Substituted phosphonic acids and derivatives useful in treating bone wasting diseases” (priority 1993, dated 1996)
Read-outs that look alike come from different tables or passages of the source.

Experiments:
[1] = target: T1, Human osteoclastic acid phosphatase (OAP) (Homo sapiens, UniProt P13686); experiment: Osteoclastic Acid Phosphatase (OAP) inhibition; format: biochemical; settings: for inhibition at 100 µM: read-out: OAPase % Inh@100 uM
T1 construct: purified from hairy cell leukemia spleen; from tissue; host or cells: human hairy cell leukemia spleen
T1 sequence (P13686 22-325): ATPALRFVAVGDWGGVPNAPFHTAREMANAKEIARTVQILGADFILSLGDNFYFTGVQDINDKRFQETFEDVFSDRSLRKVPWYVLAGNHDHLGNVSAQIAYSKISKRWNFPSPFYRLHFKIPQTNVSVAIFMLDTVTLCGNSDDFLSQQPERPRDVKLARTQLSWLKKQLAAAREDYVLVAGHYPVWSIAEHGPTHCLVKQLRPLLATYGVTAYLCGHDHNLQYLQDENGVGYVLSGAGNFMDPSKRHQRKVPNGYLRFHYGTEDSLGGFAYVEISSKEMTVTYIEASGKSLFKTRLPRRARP
Description: Inhibitors of the enzyme are involved with the stimulation of osteoblast cell proliferation in cell culture which is predictive of enhancement of bone mass and bone formation in vivo. Inhibitors of osteoclastic acid phosphatase prevent the resorptive action of osteoclasts and thereby prevent the degradation of bone mass associated with osteoporosis.
The enzyme was stored at -80° C. and was diluted in 50 mM, pH 5.0, sodium acetate buffer prior to use. Test compounds were dissolved in ethanol, DMSO, or water and tested at 100 μM. The assay measures the ability of the enzyme to dephosphorylate methylumbelliferone phosphate to the product, methylumbelliferone, which is fluorescent. The enzyme assay is performed in 50 mM, pH 5.0, sodium acetate buffer as follows: 5 μL of compound was added to 150 μL Of buffered enzyme solution. […] The reaction was performed at room temperature at pH=5.0 and terminated after 20 minutes by the addition of 50 μL of 4N NaOH. The reaction product, methylumbelliferone, was measured by fluorescence determination using a Dynatech Microfluor Fluorescence detector.

[2] = target: T2, human prostatic tyrosyl phosphatase (Homo sapiens, UniProt P15309); experiment: biochemical; settings: 30 minutes at 37° C., pH 5.5, (14C)-phosphotyrosine substrate; read-out: Tyr-Pase IC50
T2 construct: purchased Sigma Chemical Co
T2 sequence (P15309 33-386): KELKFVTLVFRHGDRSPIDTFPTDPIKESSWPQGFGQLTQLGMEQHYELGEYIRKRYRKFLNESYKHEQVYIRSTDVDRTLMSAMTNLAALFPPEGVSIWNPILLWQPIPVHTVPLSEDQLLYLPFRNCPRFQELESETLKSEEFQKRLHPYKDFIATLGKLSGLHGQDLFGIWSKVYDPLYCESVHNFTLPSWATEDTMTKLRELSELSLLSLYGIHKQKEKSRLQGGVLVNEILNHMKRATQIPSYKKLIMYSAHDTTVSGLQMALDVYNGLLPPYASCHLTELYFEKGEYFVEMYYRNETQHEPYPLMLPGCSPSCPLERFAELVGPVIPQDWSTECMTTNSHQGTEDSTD
Description: Inhibition of the activity of tyrosyl protein phosphatase was evaluated by incubating an aliquot of purified human prostatic tyrosyl protein acid phosphatase (Sigma Chemical Co.) with radiolabeled phosphotyrosine. The radiolabeled substrate, (^14 C)-phosphotyrosine, is separated from the product, (^14 C)-tyrosine by ion exchange chromatography and the production of radiolabeled tyrosine is quantified. Test compounds are screened at a concentration of one micromolar to 1 nM. The ability of test compounds to inhibit tyrosyl phosphatase was expressed as the % inhibition at the highest concentration of test compound tested and/or as the IC50 in Table 1.
The test compounds were incubated in the presence of tyrosyl acid phosphatase and radiolabeled substrate {(^14 C)-phosphotyrosine, (NEN Dupont Custom Synthesis)} plus cold O-phospho-L-tyrosine{(10 uM) (Sigma Chemical Co.)} in a 0.05 mM sodium acetate buffer (pH 5.5) for 30 minutes at 37° C. […] The incubation mixture was passed over an ion-exchange column {(Ag 1-X8) (Bio-Rad Laboratories)} and washed with 2.5 ml of distilled, deionized water. The total column effluent containing the radiolabeled product (^14 C-tyrosine) was collected and quantified by liquid scintillation spectroscopy. The test compounds IC50 was calculated using a quantal (all-or-none) dose-response calculation.

[3] = pH 5.0, room temperature, 20 minutes, read-out: OAPase IC50
[4] = pH 5.0, room temperature, 20 minutes

Row | Compound | IC50 [1, 3] [µM] | IC50 [2] [µM] | inhibition at 100 µM [1, 4] [%] | IC50 [1] [µM]
1 | O=P(O)(O)C(c1ccccc1)C1CCCCC1 (centres unmarked) [Cmpd 4] | 1.4 | 6.9 | – | –
2 | O=P(O)(O)C(c1ccccc1)C1CCCCCC1 (centres unmarked) [Cmpd 5] | – | 23.5 | 6 | –
3 | Cc1cccc(C(C2CCCCC2)P(=O)(O)O)c1 (centres unmarked) [Cmpd 7] | – | – | 16 | –
4 | Cc1ccccc1C(C1CCCCC1)P(=O)(O)O (centres unmarked) [Cmpd 8] | – | – | 16 | –
5 | Cc1cccc(C(c2ccccc2)P(=O)(O)O)c1 (centres unmarked) [Cmpd 18] | – | 14 | 4 | –
6 | Cc1ccc(C)c(C(c2ccccc2)P(=O)(O)O)c1 (centres unmarked) [Cmpd 19, 2,5-Dimethylphenyl(phenyl)methylphosphonic Acid] | – | 36.5 | 13 | –
7 | O=P(O)(O)C(c1cccc(C(F)(F)F)c1)c1cccc(C(F)(F)F)c1 [Cmpd 20, bis(3-Trifluoromethylphenyl)methylphosphonic Acid] | – | 29.3 | 28 | –
8 | Cc1cccc(CC(c2cccc(C(F)(F)F)c2)P(=O)(O)O)c1 (centres unmarked) [Cmpd 31] | – | 36 | 25 | –
9 | O=P(O)(O)C(Cc1ccc(C(F)(F)F)cc1)c1cccc(C(F)(F)F)c1 (centres unmarked) [Cmpd 32] | – | 66.2 | 10 | –
10 | O=P(O)(O)C(Cc1cccc(C(F)(F)F)c1)c1cccc(C(F)(F)F)c1 (centres unmarked) [Cmpd 35, 3-Trifluoromethylphenyl(3-trifluoromethylbenzyl)methylphosphonic Acid] | 100 | 9 | – | –
11 | O=P(O)(O)C(Cc1ccccc1)c1cccc(C(F)(F)F)c1 (centres unmarked) [Cmpd 36] | – | 100 | 12 | –
12 | O=P(O)(O)C(Cc1ccc(F)cc1)c1cccc(C(F)(F)F)c1 (centres unmarked) [Cmpd 37] | – | 30.6 | 25 | –
13 | Cc1ccc2c(C(CC3CCCCC3)P(=O)(O)O)cccc2c1 (centres unmarked) [Cmpd 43] | 11.4 | > 10 | 73 | –
14 | O=[N+]([O-])c1ccc(CC(c2cccc3ccccc23)P(=O)(O)O)cc1 (centres unmarked) [Cmpd 47] | – | – | 80 | –
15 | O=P(O)(O)C(Cc1ccc(Cl)cc1)c1cccc2ccccc12 (centres unmarked) [Cmpd 48, 4-Chlorobenzyl(1-naphthyl)methylphosphonic acid] | – | 56.9 | 94 | 21
16 | O=C(c1ccccc1)C(C(=O)c1ccccc1)(c1cccc2ccccc12)P(=O)(O)O [Cmpd 55, bis(Benzoyl)(1-naphthyl)methylphosphonic Acid] | – | > 1 | 96 | 1.4

The next lines start with results.

Row | IC50 [1, 3] [µM] | IC50 [2] [µM] | inhibition at 100 µM [1, 4] [%] | Compound | IC50 [1] [µM]
17 | – | 37 | 40 | O=P(O)(O)C(c1ccc(-c2ccccc2)cc1)C1CCCCC1 (centres unmarked) [Cmpd 6] | –
18 | – | 13.8 | 30 | O=P(O)(O)C(CCc1ccccc1)c1ccccc1 (centres unmarked) [Cmpd 9] | –
19 | – | 37.8 | 13 | Cc1ccccc1C(c1ccccc1)P(=O)(O)O (centres unmarked) [Cmpd 11] | –
20 | – | 30.7 | 12 | O=P(O)(O)C(c1ccccc1)c1ccccc1Cl (centres unmarked) [Cmpd 13] | –
21 | – | 8.9 | 9 | O=P(O)(O)C(c1ccccc1)c1ccccc1C(F)(F)F (centres unmarked) [Cmpd 14, 2-Trifluoromethylphenyl(phenyl)methylphosphonic Acid] | –
22 | – | 15 | 31 | O=P(O)(O)C(c1ccccc1)c1cccc(Cl)c1 (centres unmarked) [Cmpd 15] | –
23 | – | 67.1 | 26 | O=P(O)(O)C(c1ccccc1)c1cccc(C(F)(F)F)c1 (centres unmarked) [Cmpd 16] | –
24 | – | 17 | 89 | O=[N+]([O-])c1cccc(C(c2ccccc2)P(=O)(O)O)c1 (centres unmarked) [Cmpd 17] | –
25 | – | 44.2 | 10 | O=P(O)(O)C(c1ccccc1)c1ccc(F)cc1 (centres unmarked) [Cmpd 21] | –
26 | 100 | 40.8 | – | O=P(O)(O)C(c1ccccc1)c1ccc(C(F)(F)F)cc1 (centres unmarked) [Cmpd 23] | –
27 | – | 36.6 | 28 | COc1ccc(C(c2ccccc2)P(=O)(O)O)cc1 (centres unmarked) [Cmpd 24] | –
28 | 29 | 15.7 | 94 | O=P(O)(O)C(Cc1ccc(-c2ccccc2)cc1)c1ccccc1 (centres unmarked) [Cmpd 25] | –
29 | – | 102 | 20 | O=P(O)(O)C(c1ccccc1)c1ccc(Br)cc1 (centres unmarked) [Cmpd 26] | –
30 | – | 142 | 17 | O=P(O)(O)C(c1ccccc1)c1ccc(Cl)cc1 (centres unmarked) [Cmpd 27] | –
31 | 17 | 50 to 100 | 100 | O=P(O)(O)C(c1ccc(-c2ccccc2)cc1)c1ccc(-c2ccccc2)cc1 [Cmpd 28] | –
32 | 22 | 35.7 | 100 | O=P(O)(O)C(Cc1ccc(-c2ccccc2)cc1)c1cccc(C(F)(F)F)c1 (centres unmarked) [Cmpd 38] | –
33 | – | > 1 | 19 | O=P(O)(O)C(Cc1ccccc1)c1ccc2ccccc2c1 (centres unmarked) [Cmpd 40] | –
34 | 6.3 | > 1 | 100 | O=P(O)(O)C(Cc1ccc(-c2ccccc2)cc1)c1cccc2ccccc12 (centres unmarked) [Cmpd 42] | –
35 | – | – | 73 | COc1ccc(CC(c2cccc3ccccc23)P(=O)(O)O)cc1 (centres unmarked) [Cmpd 44] | –
36 | 21 | 67.2 | 92 | O=P(O)(O)C(Cc1ccccc1)c1cccc2ccccc12 (centres unmarked) [Cmpd 45] | –
37 | – | – | 75 | Cc1ccc(CC(c2cccc3ccccc23)P(=O)(O)O)cc1 (centres unmarked) [Cmpd 46] | –
